According to patent US11208387B2, “Macrocyclic broad spectrum antibiotics” (Genentech, Inc., priority 2019, dated 2021):
In brackets after ≈: the same amount, converted by molar mass. Where two headings read alike, the source gives them in different places.

Experiments:
Assay in all cases: Serum MIC, broth micro-dilution
Type in all cases: cell-based
[1] = tested on: Escherichia coli strain ATCC 25922; settings: read-out: E. coli 25922 Serum MIC
Experimental: (§1) In vitro antimicrobial activity of each compound was determined by measuring minimal inhibitor concentrations (MICs) using the broth micro-dilution technique as approved by the Clinical and Laboratory Standards Institute (CLSI) (Methods for Dilution Antimicrobial Susceptibility Tests for Bacteria that Grow Aerobically; Approved Standard—Eighth Edition. CLSI document M07-A8. Wayne, Pa.: Clinical and Laboratory Standards; 2009). Antibacterial activity was measure against Escherichia coli strain ATCC 25922 (E. coli), Klebsiella pneumoniae ATCC 700603 (K. pneumoniae), Acinetobacter baumannii ATCC 17978 (A. baumannii), and Pseudomonas aeruginosa PA01 (P. aeruginosa), each of which is representative of a clinically relevant Gram-negative species. Cells were inoculated onto plates of Mueller Hinton Agar and grown at 37° C. for 16-18 hours. Inocula suspensions were prepared by scraping cells into 1 mL of testing media (Mueller Hinton II cation adjusted Broth) and diluting to a final OD 600 nm of 0.01.
(§2) Test compounds were prepared in DMSO at a concentration of […]. The compounds were tested under several different dilution formats. In protocol 1, the compound stocks were diluted into testing media at a concentration of 64 μg/ml and serial 2-fold dilutions were made in the same media, in 96-well U bottom microtiter dishes, for a total of 10 compound concentrations. In protocol 2, the compound stocks were diluted into testing media at a concentration of 4 μg/mL and serial 2-fold dilutions were made in the same media, in 96-well U bottom microtiter dishes, for a total of 10 compound concentrations. In protocol 3, compound stocks were diluted into testing media at a concentration of 0.5 μg/mL, with serial 2-fold dilutions conducted as described above. In protocol 4, compound stocks were diluted into testing media at a concentration of 0.13 μg/mL, with serial 2-fold dilutions conducted as described above. Inocula suspensions were added to the 2-fold serial dilutions of test compounds to a final density of OD 600 nm of 0.0005 and incubated at 35° C. for 22 hours. […] To assess antimicrobial activity in the presence of plasma proteins, MICs were also determined in growth media supplemented with 50% serum. Bacterial inocula and test compound dilution plates were prepared using the same protocol as described above for the standard MICs assay, with the exception that a mixture of 50% v/v Mueller Hinton II cation adjusted Broth and 50% v/v mouse sterile filtered serum (Equitech-Bio) was used in place of 100% Mueller Hinton II cation adjusted Broth. The results are listed in Table 3 (MIC, IC50 values micromolar).

[2] = tested on: Acinetobacter baumannii ATCC 17978
Experimental: as §1, §2

[3] = tested on: Klebsiella pneumoniae ATCC 700603
Experimental: as §1, §2

[4] = tested on: Pseudomonas aeruginosa PA01; settings: for MIC: Pseudomonas aeruginosa, PA01, read-out: P. aeruginosa 01 Serum MIC
Experimental: as §1, §2

[5] = Escherichia coli, ATCC25922, 50% v/v mouse serum in Mueller Hinton II cation adjusted Broth, 35° C., 22 hours, Table 4
[6] = Acinetobacter baumannii, ATCC17978, 50% v/v mouse serum in Mueller Hinton II cation adjusted Broth, 35° C., 22 hours, Table 4, read-out: A. baumanii 17978 Serum MIC
[7] = Acinetobacter baumannii, ATCC17978, 50% v/v mouse serum in Mueller Hinton II cation adjusted Broth, 35° C., 22 hours, Table 5, read-out: Acinetobacter baumanii 17978 Serum MIC
[8] = Klebsiella pneumoniae, ATCC700603, 50% v/v mouse serum in Mueller Hinton II cation adjusted Broth, 35° C., 22 hours, Table 4, read-out: K pneumoniae 700603 Serum MIC
[9] = 50% v/v mouse serum in Mueller Hinton II cation adjusted Broth, 35° C., 22 hours, Table 4

SMILES | MIC [1, 5] [µM] | MIC [2, 6] [µM] | MIC [2, 7] [µM] | MIC [3, 8] [µM] | MIC [4, 9] [µM] | also measured
Cc1cc(-c2ccc(C(C)(C)C)cc2F)nc(N)c1C(=O)N[C@@H](CNS(N)(=O)=O)C(=O)N(C)[C@@H]1C(=O)N[C@@H](C)C(=O)N[C@H](C(=O)O)Cc2ccc(OC[C@H](O)CN)c(c2)-c2cc1cc(OC[C@H](O)CN)c2O [Example 35, (8S,11S,14S)-14-[[(2S)-2-[[2-amino-6-(4-tert-butyl-2-fluoro-phenyl)-4-methyl-pyridine-3-carbonyl]amino]-3-(sulfamoylamino)-propanoyl]-methyl-amino]-3,17-bis[(2R)-3-amino-2-hydroxy-propoxy]-18-hydroxy-11-methyl-10,13-dioxo-9,12-diazatricyclo-[13.3.1.12,6]icosa-1(18),2(20),3,5,15(19), 16-hexaene-8-carboxylic acid] | 0.5 (≈ 0.513 µg/mL) | 16 (≈ 16.4 µg/mL) | 16 (≈ 16.4 µg/mL) | 0.5 (≈ 0.513 µg/mL) | 8 (≈ 8.2 µg/mL) | 
COc1c(OC[C@H](O)CN)cc2cc1-c1cc(ccc1OC[C@H](O)CN)C[C@@H](C(=O)O)NC(=O)[C@H](C)NC(=O)[C@H]2N(C)C(=O)[C@H](CNS(N)(=O)=O)NC(=O)c1c(C)nc(-c2ccc(C(C)(C)C)cc2)nc1N [Example 75, (8S,11S,14S)-14-[[(2S)-2-[[4-amino-2-(4-tert-butylphenyl)-6-methyl-pyrimidine-5-carbonyl]amino]-3-(sulfamoylamino)-propanoyl]-methyl-amino]-3,17-bis[(2R)-3-amino-2-hydroxy-propoxy]-18-methoxy-11-methyl-10,13-dioxo-9,12-diazatri-cyclo[13.3.1.12,6]icosa-1(18),2(20),3,5,15(19), 16-hexaene-8-carboxylic acid] |  |  |  |  |  | MIC [1, 9]: 0.75 µM (≈ 0.767 µg/mL); MIC ([2]; 50% v/v mouse serum in Mueller Hinton II cation adjusted Broth, 35° C., 22 hours, Table 4, read-out: A. baumanii 17978 Serum MIC): 16 µM (≈ 16.4 µg/mL); MIC ([2]; 50% v/v mouse serum in Mueller Hinton II cation adjusted Broth, 35° C., 22 hours, Table 5, read-out: Acinetobacter baumanii 17978 Serum MIC): 16 µM (≈ 16.4 µg/mL); MIC ([3]; 50% v/v mouse serum in Mueller Hinton II cation adjusted Broth, 35° C., 22 hours, Table 4, read-out: K. pneumoniae 700603 Serum MIC): 0.5 µM (≈ 0.511 µg/mL); P. aeruginosa 01 Serum MIC [4, 9]: 8 µM
Cc1nc(-c2ccc(C(F)(F)C(C)C)cc2)ncc1C(=O)N[C@@H](CNS(N)(=O)=O)C(=O)N(C)[C@@H]1C(=O)N[C@@H](C)C(=O)N[C@H](C(=O)O)Cc2ccc(OC[C@H](O)CN)c(c2)-c2cc1cc(OC[C@H](O)CN)c2O [Example 10, (8S,11S,14S)-18-hydroxy-11-methyl-14-[methyl-[(2S)-2-[[2-[4-(1,1-difluoro-2-methyl-propyl)-phenyl]-4-methyl-pyrimidine-5-carbonyl]amino]-3-(sulfamoylamino)-propanoyl]amino]-10,13-dioxo-3,17-bis[(2R)-3-amino-2-hydroxy-propoxy]-9,12-diazatricyclo-[13.3.1.12,6]icosa-1(18),2(20),3,5,13(19), 16-hexaene-8-carboxylic acid] | 0.5 (≈ 0.515 µg/mL) | 32 (≈ 32.9 µg/mL) | 32 (≈ 32.9 µg/mL) | 1 (≈ 1.03 µg/mL) | 32 (≈ 32.9 µg/mL) | 
CCCCCOc1ccc(-c2nc(C)c(C(=O)N[C@@H](CCN)C(=O)N(C)[C@@H]3C(=O)N[C@@H](C)C(=O)N[C@H](C(=O)O)Cc4ccc(OCCN)c(c4)-c4cc3ccc4O)c(C)n2)cc1 (racemic) [Example 642] |  |  |  |  |  | MIC ([1]; Escherichia coli, ATCC25922, 50% v/v mouse serum, compounds of Table 1, Table 7): 25 µM (≈ 21.3 µg/mL); MIC ([2]; Acinetobacter baumannii, ATCC17978, 50% v/v mouse serum, compounds of Table 1, Table 7, read-out: A. baumanii 17978 Serum MIC): 71 µM (≈ 60.6 µg/mL); MIC ([3]; Klebsiella pneumoniae, ATCC700603, 50% v/v mouse serum, compounds of Table 1, Table 7, read-out: K. pneumoniae 700603 Serum MIC): 1.1 µM (≈ 0.938 µg/mL); MIC ([4]; 50% v/v mouse serum, compounds of Table 1, Table 7): 53 µM (≈ 45.2 µg/mL)
C[C@@H]1NC(=O)[C@@H](N(C)C(=O)[C@H](CCN)NC(=O)c2cnn(-c3ccc(C4(C)CC4)cc3)c(=O)c2)c2cc(OC[C@H](O)CN)c(O)c(c2)-c2cc(ccc2OC[C@H](O)CN)C[C@@H](C(=O)O)NC1=O [Example 29, (8S,11S,14S)-18-hydroxy-11-methyl-14-[methyl-[(2S)-4-amino-2-[[1-[4-(1-methylcyclopropyl)-phenyl]-6-oxo-pyridazine-4-carbonyl]amino]-butanoyl]amino]-10,13-dioxo-3,17-bis[(2R)-3-amino-2-hydroxy-propoxy]-9,12-diazatricyclo-[13.3.1.12,6]icosa-1(18),2(20),3,5,15(19), 16-hexaene-8-carboxylic acid] | 2.7 (≈ 2.51 µg/mL) | 32 (≈ 29.7 µg/mL) | 32 (≈ 29.7 µg/mL) | 1.8 (≈ 1.67 µg/mL) | 64 (≈ 59.4 µg/mL) | 

Now from value to compound, other results behind:

MIC [1, 5] [µM] | MIC [2, 6] [µM] | MIC [2, 7] [µM] | MIC [3, 8] [µM] | MIC [4, 9] [µM] | SMILES | also measured
1 (≈ 1.04 µg/mL) | 32 (≈ 33.2 µg/mL) | 32 (≈ 33.2 µg/mL) | 1 (≈ 1.04 µg/mL) | 16 (≈ 16.6 µg/mL) | Cc1nc(-c2ccc(C(C)(C)C)cc2O)cc(CN)c1C(=O)N[C@@H](CNS(N)(=O)=O)C(=O)N(C)[C@@H]1C(=O)N[C@@H](C)C(=O)N[C@H](C(=O)O)Cc2ccc(OC[C@H](O)CN)c(c2)-c2cc1cc(OC[C@H](O)CN)c2O [Example 65, (8S,11S,14S)-3,17-bis[(2R)-3-amino-2-hydroxy-propoxy]-14-[[(2S)-2-[[4-(aminomethyl)-6-(4-tert-butyl-2-hydroxy-phenyl)-2-methyl-pyridine-3-carbonyl]-amino]-3-(sulfamoyl-amino)propanoyl]-methyl-amino]-18-hydroxy-11-methyl-10,13-dioxo-9,12-diazatricyclo-[13.3.1.12,6]icosa-1(19),2(20),3,5,15,17-hexaene-8-carboxylic acid] | 
4 (≈ 4.15 µg/mL) | 48 (≈ 49.8 µg/mL) | 48 (≈ 49.8 µg/mL) | 4 (≈ 4.15 µg/mL) | 16 (≈ 16.6 µg/mL) | Cc1nc(-c2ccc(C(C)(C)C)cc2CO)nc(N)c1C(=O)N[C@@H](CNS(N)(=O)=O)C(=O)N(C)[C@@H]1C(=O)N[C@@H](C)C(=O)N[C@H](C(=O)O)Cc2ccc(OC[C@H](O)CN)c(c2)-c2cc1cc(OC[C@H](O)CN)c2O [Example 58, (8S,11S,14S)-14-[[(2S)-2-[[4-amino-2-[4-tert-butyl-2-(hydroxymethyl)-phenyl]-6-methyl-pyrimidine-5-carbonyl]amino]-3-(sulfamoylamino)-propanoyl]-methyl-amino]-3,17-bis[(2R)-3-amino-2-hydroxy-propoxy]-18-hydroxy-11-methyl-10,13-dioxo-9,12-diazatricyclo-[13.3.1.12,6]icosa-1(18),2(20),3,5,15(19), 16-hexaene-8-carboxylic acid] | 
0.25 (≈ 0.245 µg/mL) | 8 (≈ 7.83 µg/mL) | 8 (≈ 7.83 µg/mL) | 0.5 (≈ 0.49 µg/mL) | 8 (≈ 7.83 µg/mL) | C[C@@H]1NC(=O)[C@@H](N(C)C(=O)[C@H](CNS(N)(=O)=O)NC(=O)c2cnc(-c3ccc(C(C)(C)C)cc3)nc2)c2cc(OC[C@H](O)CN)c(O)c(c2)-c2cc(ccc2OC[C@H](O)CN)C[C@@H](C(=O)O)NC1=O [Example 71, (8S,11S,14S)-3,17-bis[(2R)-3-amino-2-hydroxy-propoxy]-14-[[(2S)-2-[[2-(4-tert-butylphenyl)-pyrimidine-5-carbonyl]amino]-3-(sulfamoylamino)-propanoyl]-methyl-amino]-18-hydroxy-11-methyl-10,13-dioxo-9,12-diazatri-cyclo[13.3.1.12,6]icosa-1(18),2(20),3,5,15(19), 16-hexaene-8-carboxylic acid] | 
